In patent US11753430B2, “Method of making cobalt compounds for feed supplements” (Vitalix, Inc., priority 2021, dated 2023):

Assay: surface area of crystals formed with and without sonication
Type: physicochemical
Experimental: The method can also include a step of forming a premix, including the substeps of adding, after the step of dissolving, gluconic acid to provide an almost 1:1 premix mixture of cobalt acetate and cobalt gluconate compounds, and then sonicating the premix mixture. The premix remained in solution at 15° C. for over ten days. When additional gluconic acid (1.1 eq of total gluconic acid to acetic acid) was added, and gently mixed, within a half hour precipitation of very fine cobalt gluconate crystals occurred.

## cobalt gluconate
  surface area relative to that observed with sonication: less than 20 times
